Columns and labels:
[1] = Plasma stability assay, rat plasma; assay type: in vitro ADME
Method: (§1) Compound stability in rat and human plasma was measured by incubating compound with rat or human plasma at 37° C. in a microwell plate for sequential time points, monitoring pro-drug disappearance and metabolite appearance (mesembranol or 6-epi-mesembranol). A 2 mM stock solution of test compounds were prepared by dissolving appropriate amount of compounds in DMSO. The 2 mM stock was further diluted 200-folds in rat or human plasma to attain a final concentration of 10 μM respectively (0.5% DMSO). 50 μL aliquots of positive controls and test compounds spiked into rat or human plasma (n=2) were added to a pre-warmed plate (37° C.) and shaken at 50 rpm. At each respective time point, the reaction was stopped by adding 500 μL of acetonitrile containing internal standards (100 nM aprozolam, 200 nM caffeine, 100 nM tolbutamide). All samples were vortexed for 10 minutes, followed by centrifugation at 3,220 g for 30 minutes to precipitate proteins. 100 μL of the supernatant is transferred to a new plate. The supernatant will be diluted with ultrapure water according to the LC-MS signal response and peak shape. The concentrations of test compounds and positive control were quantified in the test samples using LC-MS/MS. Results reported as % of prodrug compound remaining at time point, and % of metabolite (mesembranol or 6-epi-mesembranol,) accumulated at time point.

[2] = Plasma stability assay, human plasma; assay type: in vitro ADME
Method: as §1

[3] = rat plasma, 37° C., 10 μM, 0 min, % prodrug remaining
[4] = rat plasma, 37° C., 10 μM, 10 min, % prodrug remaining
[5] = rat plasma, 37° C., 10 μM, 30 min, % prodrug remaining
[6] = rat plasma, 37° C., 10 μM, 60 min, % prodrug remaining
[7] = rat plasma, 37° C., 10 μM, 120 min, % prodrug remaining
[8] = rat plasma, 37° C., 10 μM, 240 min, % prodrug remaining
[9] = human plasma, 37° C., 10 μM, 0 min, % prodrug remaining
[10] = human plasma, 37° C., 10 μM, 10 min, % prodrug remaining
[11] = human plasma, 37° C., 10 μM, 30 min, % prodrug remaining
[12] = human plasma, 37° C., 10 μM, 60 min, % prodrug remaining
[13] = human plasma, 37° C., 10 μM, 120 min, % prodrug remaining
[14] = human plasma, 37° C., 10 μM, 240 min, % prodrug remaining

Question: For `COc1ccc([C@@]23CC[C@H](OC(=O)c4ccccc4)C[C@@H]2N(C)CC3)cc1OC` [Compound 104, (3aS,6S,7aS)-3a-(3,4-dimethoxyphenyl)-1-methyloctahydro-1H-indol-6-yl benzoate], which “Prodrug (%)” value [1, 3] is on record?
Answer: Its value is 100.0%.

Question: And the “Prodrug (%)” value [1, 4]?
Answer: The value was 62.0%.

Question: What about the “Prodrug (%)” value [1, 5] of the same compound?
Answer: Its value is 27.5%.

Question: What about the “Prodrug (%)” value [1, 6] of the same compound?
Answer: Its value is 7.5%.

Question: What about the “Prodrug (%)” value [1, 7] of the same compound?
Answer: The value was 1.4%.

Question: What about the “Prodrug (%)” value [1, 8] of the same compound?
Answer: Its value is 0.6%.

Question: What about the “Prodrug (%)” value [2, 9] of the same compound?
Answer: The value was 100.00%.

Question: What about the “Prodrug (%)” value [2, 10] of the same compound?
Answer: Its value is >99.0%.

Question: What about the “Prodrug (%)” value [2, 11] of the same compound?
Answer: Its value is 97.34%.

Question: What about the “Prodrug (%)” value [2, 12] of the same compound?
Answer: Its value is 97.40%.

Question: What about the “Prodrug (%)” value [2, 13] of the same compound?
Answer: Its value is 95.15%.

Question: And the “Prodrug (%)” value [2, 14]?
Answer: Its value is 90.28%.

Question: Which “Prodrug (%)” value ([1]; rat, 0 min, 10 µM) does the source give for `CCCCC(=O)O[C@H]1CC[C@@]2(c3ccc(OC)c(OC)c3)CCN(C)[C@H]2C1` [Compound 105, (3aS,6S,7aS)-3a-(3,4-dimethoxyphenyl)-1-methyloctahydro-1H-indol-6-yl pentanoate] here?
Answer: Its value is 100.0%.

Question: And the “Prodrug (%)” value ([1]; rat, 10 min, 10 µM)?
Answer: The value was 10.8%.

Question: What about the “Prodrug (%)” value ([1]; rat, 30 min, 10 µM) of the same compound?
Answer: The value was 0.5%.

Question: And the “Prodrug (%)” value ([1]; rat, 60 min, 10 µM)?
Answer: The value was 0.1%.

Question: And the “Prodrug (%)” value ([1]; rat, 120 min, 10 µM)?
Answer: Its value is 0.0%.

Question: What about the “Prodrug (%)” value ([1]; rat, 240 min, 10 µM) of the same compound?
Answer: The value was 0.0%.

Question: And the “Prodrug (%)” value ([2]; human, 0 min, 10 µM)?
Answer: The value was 100.00%.

Question: And the “Prodrug (%)” value ([2]; human, 10 min, 10 µM)?
Answer: The value was 96.40%.

Question: What about the “Prodrug (%)” value ([2]; human, 30 min, 10 µM) of the same compound?
Answer: The value was 89.85%.

Question: What about the “Prodrug (%)” value ([2]; human, 60 min, 10 µM) of the same compound?
Answer: The value was 81.61%.

Question: What about the “Prodrug (%)” value ([2]; human, 120 min, 10 µM) of the same compound?
Answer: Its value is 72.68%.

Question: And the “Prodrug (%)” value ([2]; human, 240 min, 10 µM)?
Answer: The value was 50.16%.

Question: With `CCCC(=O)O[C@H]1CC[C@@]2(c3ccc(OC)c(OC)c3)CCN(C)[C@H]2C1` [Compound 106, (3aS,6S,7aS)-3a-(3,4-dimethoxyphenyl)-1-methyloctahydro-1H-indol-6-yl butyrate] as the compound, how does the “Prodrug (%)” value ([1]; rat, 0 min, 10 µM) read?
Answer: Its value is 100.0%.

Question: What about the “Prodrug (%)” value ([1]; rat, 10 min, 10 µM) of the same compound?
Answer: The value was 39.9%.

Question: And the “Prodrug (%)” value ([1]; rat, 30 min, 10 µM)?
Answer: The value was 2.75%.

Question: What about the “Prodrug (%)” value ([1]; rat, 60 min, 10 µM) of the same compound?
Answer: Its value is 0.7%.

Question: And the “Prodrug (%)” value ([1]; rat, 120 min, 10 µM)?
Answer: Its value is 0.2%.

Question: And the “Prodrug (%)” value ([1]; rat, 240 min, 10 µM)?
Answer: Its value is 0.1%.

Question: And the “Prodrug (%)” value ([2]; human, 0 min, 10 µM)?
Answer: Its value is 100.00%.

Question: And the “Prodrug (%)” value ([2]; human, 10 min, 10 µM)?
Answer: Its value is 93.04%.

Question: And the “Prodrug (%)” value ([2]; human, 30 min, 10 µM)?
Answer: Its value is 87.33%.

Question: And the “Prodrug (%)” value ([2]; human, 60 min, 10 µM)?
Answer: Its value is 79.39%.

Question: And the “Prodrug (%)” value ([2]; human, 120 min, 10 µM)?
Answer: Its value is 67.04%.

Question: What about the “Prodrug (%)” value ([2]; human, 240 min, 10 µM) of the same compound?
Answer: The value was 50.22%.

Question: For `COc1ccc([C@@]23CC[C@@H](OC(=O)N(C)C)C[C@@H]2N(C)CC3)cc1OC` [Compound 201, (3aS,6R,7aS)-3a-(3,4-dimethoxyphenyl)-1-methyloctahydro-1H-indol-6-yl dimethylcarbamate], which “Prodrug (%)” value [1, 3] is on record?
Answer: Its value is 100.0%.

Question: What about the “Prodrug (%)” value [1, 4] of the same compound?
Answer: The value was >99.0%.

Question: And the “Prodrug (%)” value [1, 5]?
Answer: The value was >99.0%.

Question: What about the “Prodrug (%)” value [1, 6] of the same compound?
Answer: The value was >99.0%.

Question: What about the “Prodrug (%)” value [1, 7] of the same compound?
Answer: The value was >99.0%.

Question: What about the “Prodrug (%)” value [1, 8] of the same compound?
Answer: The value was 97.6%.

Question: What about the “Prodrug (%)” value [2, 9] of the same compound?
Answer: Its value is 100.0%.

Question: And the “Prodrug (%)” value [2, 10]?
Answer: Its value is 96.3%.

Question: What about the “Prodrug (%)” value [2, 11] of the same compound?
Answer: Its value is 97.0%.

Question: And the “Prodrug (%)” value [2, 12]?
Answer: Its value is 94.8%.

Question: And the “Prodrug (%)” value [2, 13]?
Answer: Its value is 97.7%.

Question: What about the “Prodrug (%)” value [2, 14] of the same compound?
Answer: Its value is >99.0%.

Question: What does the source list for `COc1ccc([C@@]23CC[C@@H](OC(=O)C(C)(C)C)C[C@@H]2N(C)CC3)cc1OC` [Compound 202, (3aS,6R,7aS)-3a-(3,4-dimethoxyphenyl)-1-methyloctahydro-1H-indol-6-yl pivalate]?
Answer: Prodrug (%) ([1]; rat, 0 min, 10 µM): 100.0%; Prodrug (%) ([1]; rat, 10 min, 10 µM): 80.6%; Prodrug (%) ([1]; rat, 30 min, 10 µM): 38.9%; Prodrug (%) ([1]; rat, 60 min, 10 µM): 9.6%; Prodrug (%) ([1]; rat, 120 min, 10 µM): 0.6%; Prodrug (%) ([1]; rat, 240 min, 10 µM): 0.0%; Prodrug (%) ([2]; human, 0 min, 10 µM): 100.0%; Prodrug (%) ([2]; human, 10 min, 10 µM): >99.0%; Prodrug (%) ([2]; human, 30 min, 10 µM): >99.0%; Prodrug (%) ([2]; human, 60 min, 10 µM): 96.3%; Prodrug (%) ([2]; human, 120 min, 10 µM): 94.7%; Prodrug (%) ([2]; human, 240 min, 10 µM): 88.1%

Question: Which “Prodrug (%)” value ([1]; rat, 0 min, 10 µM) does the source give for `COc1ccc([C@@]23CC[C@@H](OC(=O)C(C)C)C[C@@H]2N(C)CC3)cc1OC` [Compound 203, (3aS,6R,7aS)-3a-(3,4-dimethoxyphenyl)-1-methyloctahydro-1H-indol-6-yl isobutyrate] here?
Answer: The value was 100.0%.

Question: What about the “Prodrug (%)” value ([1]; rat, 10 min, 10 µM) of the same compound?
Answer: Its value is 0.1%.

Question: And the “Prodrug (%)” value ([1]; rat, 30 min, 10 µM)?
Answer: Its value is 0.1%.

Question: And the “Prodrug (%)” value ([1]; rat, 60 min, 10 µM)?
Answer: The value was 0.0%.

Question: What about the “Prodrug (%)” value ([1]; rat, 120 min, 10 µM) of the same compound?
Answer: The value was 0.0%.

Question: What about the “Prodrug (%)” value ([1]; rat, 240 min, 10 µM) of the same compound?
Answer: The value was 0.0%.

Question: And the “Prodrug (%)” value ([2]; human, 0 min, 10 µM)?
Answer: The value was 100.0%.

Question: What about the “Prodrug (%)” value ([2]; human, 10 min, 10 µM) of the same compound?
Answer: The value was 0.1%.

Question: And the “Prodrug (%)” value ([2]; human, 30 min, 10 µM)?
Answer: The value was 0.1%.

Question: What about the “Prodrug (%)” value ([2]; human, 60 min, 10 µM) of the same compound?
Answer: Its value is 0.1%.

Question: What about the “Prodrug (%)” value ([2]; human, 120 min, 10 µM) of the same compound?
Answer: Its value is 0.1%.

Question: What about the “Prodrug (%)” value ([2]; human, 240 min, 10 µM) of the same compound?
Answer: Its value is 0.1%.

From patent US20240409566A1, “DELIVERY OF THERAPEUTIC ALKALOID COMPOUNDS” (priority 2022, published 2024)
